These results are taken from patent US20250332326A1, “METHOD OF GENERATING 3D POROUS HYBRID PROTEIN NANOSCAFFOLD” (Rutgers, The State University of New Jersey, priority 2024, published 2025).

The subject of experiment [1] is LPS-stimulated THP-1-derived macrophages. The experiment in a line: qRT-PCR of inflammatory genes in LPS-stimulated macrophages co-cultured with scaffolds. It counts as cell-based, human. The conditions noted are these: Transwell system, 50, 100, 200 μg/mL BETi loading. The method, then:
THP-1 monocytes were purchased from ATCC® and cultured using standard protocol provided by the vendor (10% FBS in 1640 RPMI basal media supplemented with […] beta-mercaptoethanol). Media was refreshed every other day. THP-1 monocytes were cultured at a density of 100,000 to 500,000 cells per mL. When they proliferate above the density, cells were centrifuged down for media change. To convert suspension culture of THP-1 monocytes into adherent macrophages, 200 ng/ml of phorbol myristate acetate (PMA) was added into the media then split into 24 well plates at designated density (100,000 per well). PMA was treated for 1-3 days then fresh growth media without PMA was added. To stimulate the macrophages, 1,000 ng/mL lipopolysaccharide (LPS, Sigma Aldrich) was included in the media for 4 hours. Macrophages were converted from THP-1 monocytes through PMA activation. Then different scaffold conditions, including chitosan nanoscaffold, 3D-PHP nanoscaffold, and control (PBS only), as well as 3D-PHP nanoscaffold loaded with low (50 μg), medium (100 μg) and high (200 μg) dosages of BETi (JQ-1 from Tocris) drugs were added into the macrophage cultured followed by the addition of 1 μg/mL LPS for stimulation of macrophages. […] Cells were lysed with Trizol®, and then the lysates were stored at −80° C. until ready for use. […]
For orientation: Real-time PCR tracks product formation cycle by cycle.

Experiment [2] relates to rat nucleotomy disc injury model. The experiment in a line: Rat nucleotomy disc injury model, histological and MRI analysis 6 WPI. It is filed as in vivo. The method, then:
Rats were anesthetized by injection of 2 mg/kg midazolam and 0.15 mg/kg medetomidine and butorphanol tartrate. After rats reached deep anesthesia, which was confirmed by tail pinching, posterior midline incision was performed at the Co6-7 level to expose the intervertebral disc. A no. 11 scalpel was used for the incision of posterior AF and the longitudinal cut was around 2 mm. […] After the nucleotomy, nanoscaffolds were pushed into the empty space using a micropipette tip. As controls, PBS was injected into the empty space after the nucleotomy. A heating pad was provided underneath the rats throughout the procedure and the rats were observed during recovery from the anesthesia.
MRI was performed on rats 6 WPI using a Bruker BioSpec (9.4 T) MRI scanner in order to investigate the regeneration of discs after the nucleotomy, which can be quantified by the signal intensities and water content through T2-weighted MRI. In the MRI study, time-to-repetition was set as 5,000 ms; time-toecho was set to 30 ms; and coronal axial planes were imaged for the rat discs. MRI index and signal intensities were used for the calculation of degree of damage of coccygeal disc tissues. Region of interest (ROI) was defined as the higher intensity area in the coronal plane and ROI was quantified using Fiji (Image J). MRI index was measured with blind tests by two independent observers.
At 6 WPI, animals were all sacrificed and disc tissues were harvested and fixed using 10% buffered formalin for one week. Decalcification was then performed using Rapid Cal Immuno™ (BBC biochemical) for another 2 weeks. Disc tissues were then paraffin-embedded and sectioned in the coronal directions with a Leica microtome. After dewaxing, rehydration, and permeabilization by methanol, H&E, immunohistofluorescent, and Safranin-O staining were performed on different sections. For H&E staining, tissue sections were stained in a solution with Mayer's Hematoxylin for 5 minutes then washed with water and counterstained in alcoholic solution of eosin for another minute without rinsing. […] For the Safranin-O staining, tissues were stained for 10 minutes by Weigert's iron hematoxylin solution followed by extensive washing with water. Then fast green solution was used for the second staining for 5 minutes followed by brief rinsing with 1% acetic acid solution and then stained with 0.1% Safranin-O solution. Afterwards, tissues were dehydrated and cleared using identical protocol as mentioned in the H&E staining. Safranin-O staining score was based on an 8-point scale previous used for IVD tissue analysis, and if no degenerative features were found a zero score was assigned. For the immunohistofluorescent and immunohistochemistry staining of inflammatory (e.g., MMP13 and IL1β), ECM (aggrecan, Collagen II) and pain (e.g., CGRP) markers, disc tissues with fixation and decalfication were first dewaxed, sectioned into 10 μm sections, and stained with primary antibodies followed by 24 hours incubation. After washing with PBS containing 0.1% Tween 20, the secondary antibodies were added and incubated for 2 hours. Finally, the nucleus was stained with DAPI for 15 minutes. Sections were then examined under a fluorescent or colorimetric microscope with a Zeiss 880 confocal microscope and Olympus microscope, respectively. ImageJ was used for quantification in an automatic manner.

On to `Cc1sc2c(c1C)C(c1ccc(Cl)cc1)=N[C@@H](CC(=O)OC(C)(C)C)c1nnc(C)n1-2` [BETi, JQ1], for which, in experiment [1], the “inflammatory responses (pro- and anti-inflammatory gene expression)” value is listed as “significantly lowered the inflammatory responses”. Also, in experiment [2], the “IL-1β expression (positive area, immunostaining)” value is “did not induce a significant reduction” and the “MMP-13 levels (immunostaining)” value was “did not suppress”. Moreover, in experiment [2] (compared to injury alone), the “CGRP signals (pain marker, positive area ratio)” value is reported as “considerably less reduction”. For the same compound, the “disc integrity / healthy disc tissue (H&E staining, MRI index)” value in experiment [2] (implanted or injected on day of nucleotomy) is “slightly improved the restoration of the disc structure”. In addition, the “up-regulation of Collagen II and aggrecan” value in experiment [2] (result in words) is on record as “did not result in noticeable up-regulation”.
